Data as given in patent US20240199623A1 (ILDONG PHARMACEUTICAL CO., LTD., priority 2020, published 2024).
≈ marks a conversion by molar mass, not a printed value.

How the values were obtained:
[1] = Phosphate-buffered saline (PBS) solubility of compounds; format: physicochemical; conditions: aqueous buffer, thermodynamic from solid, PBS pH 7.5, 0.5 mg/mL, vortexed 90 min, filtered, LC-MS/MS, read-out: Solubility Range
Protocol: PBS solutions (pH 7.5) were prepared according to the following compositions and stored at 4° C. Test compounds were dissolved in PBS (pH 7.5) at 0.5 mg/mL and vortexed for 90 min. The PBS solution was sequentially filtered through a 0.45, 1.2, […] syringe filter. Concentration of test compounds were determined using LC-MS/MS with appropriate dilution of the samples.

human wild type-CFTR = human wild type-CFTR (Homo sapiens, UniProt P13569); assay: Cell-based YFP assay; parameters: expressed in transfected cells; host or cells: CHO-K1 (Chinese hamster ovary); conditions: CHO-K1 cells expressing human wild type-CFTR and YFP-H148Q/I152L; forskolin 20 μM = 100% activity; read-out: Cell-based YFP Assay (EC50) Concentration Range
How it was run: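 CHO-K1 cells co-expressing human wild-type CFTR and YFP-H148Q/I152L halide sensor, grown 48 h at 37 °C, then in PBS. YFP quenching by I⁻ influx read at 37 °C after adding 140 mM I⁻ solution, sampled every 0.4 s for 14 s. Triplicates averaged; EC50 fitted.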

Sequence of human wild type-CFTR (P13569 whole entry): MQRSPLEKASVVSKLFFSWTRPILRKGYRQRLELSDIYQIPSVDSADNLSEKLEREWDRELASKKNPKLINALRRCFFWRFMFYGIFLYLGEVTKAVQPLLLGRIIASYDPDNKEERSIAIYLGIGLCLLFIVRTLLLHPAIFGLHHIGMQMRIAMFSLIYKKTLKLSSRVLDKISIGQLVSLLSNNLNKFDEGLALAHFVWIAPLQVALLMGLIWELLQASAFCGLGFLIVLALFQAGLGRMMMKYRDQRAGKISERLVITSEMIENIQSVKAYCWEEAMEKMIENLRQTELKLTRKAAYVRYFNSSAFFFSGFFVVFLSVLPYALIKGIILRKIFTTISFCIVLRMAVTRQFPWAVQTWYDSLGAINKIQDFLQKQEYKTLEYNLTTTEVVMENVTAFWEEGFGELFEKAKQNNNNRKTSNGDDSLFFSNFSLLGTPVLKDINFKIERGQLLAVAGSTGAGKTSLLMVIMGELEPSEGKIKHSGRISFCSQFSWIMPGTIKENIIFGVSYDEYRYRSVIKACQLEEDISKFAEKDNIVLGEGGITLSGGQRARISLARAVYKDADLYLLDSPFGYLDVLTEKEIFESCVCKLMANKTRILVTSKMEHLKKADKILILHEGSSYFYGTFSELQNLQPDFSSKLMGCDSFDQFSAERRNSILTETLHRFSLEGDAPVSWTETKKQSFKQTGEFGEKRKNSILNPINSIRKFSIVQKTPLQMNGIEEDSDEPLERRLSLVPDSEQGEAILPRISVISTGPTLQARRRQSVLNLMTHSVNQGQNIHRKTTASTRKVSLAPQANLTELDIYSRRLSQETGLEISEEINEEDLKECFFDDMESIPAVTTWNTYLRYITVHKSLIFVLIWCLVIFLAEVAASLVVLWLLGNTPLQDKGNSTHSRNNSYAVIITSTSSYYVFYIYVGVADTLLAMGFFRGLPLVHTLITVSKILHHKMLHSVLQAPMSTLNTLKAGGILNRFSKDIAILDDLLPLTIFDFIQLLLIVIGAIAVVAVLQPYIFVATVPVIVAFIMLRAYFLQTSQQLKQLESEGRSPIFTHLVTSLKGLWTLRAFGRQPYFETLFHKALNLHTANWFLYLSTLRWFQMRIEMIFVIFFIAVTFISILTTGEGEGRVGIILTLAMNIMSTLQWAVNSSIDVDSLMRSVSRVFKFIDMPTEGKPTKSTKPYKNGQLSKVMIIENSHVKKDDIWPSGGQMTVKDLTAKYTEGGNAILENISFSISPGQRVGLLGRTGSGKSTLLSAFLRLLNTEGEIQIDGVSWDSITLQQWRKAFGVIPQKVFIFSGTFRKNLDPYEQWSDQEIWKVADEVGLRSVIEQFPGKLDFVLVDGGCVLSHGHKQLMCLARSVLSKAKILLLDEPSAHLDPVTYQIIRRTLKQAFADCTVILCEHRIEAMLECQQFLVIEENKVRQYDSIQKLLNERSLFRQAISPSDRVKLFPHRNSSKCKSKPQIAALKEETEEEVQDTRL

solubility at 90 min [1] [µg/mL]	EC50 (human wild type-CFTR) [nM]	Compound
0.1 to 10 (≈ 0.187 to 18.7 µM)	200 to 2000	COc1ccc(-c2ccnc3cc(C(=O)Nc4ccc(C(=O)N5CCN(C)CC5)c(Cl)c4)nn23)cc1OC [Compound 161, N-(3-chloro-4-(4-methylpiperazine-1-carbonyl)phenyl)-7-(3,4-dimethoxyphenyl)pyrazolo [1,5-a]pyrimidine-2-carboxamide]
< 0.1	200 to 2000	COc1ccc(-c2ccnc3cc(C(=O)Nc4ccc(C(=O)OCCCN5CCN(C)CC5)cc4)nn23)cc1OC [Compound 165, 3-(4-methylpiperazin-1-yl)propyl 4-(7-(3,4-dimethoxyphenyl)pyrazolo[1,5-a]pyrimidine-2-carboxamido)benzoate]
< 0.1	200 to 2000	COc1ccc(-c2ccnc3cc(C(=O)Nc4ccc(C(=O)N5CC6(CN(C)C6)C5)cc4)nn23)cc1OC [Compound 166, 7-(3,4-dimethoxyphenyl)-N-(4-(6-methyl-2,6-diazaspiro[3.3]heptane-2-carbonyl)phenyl)pyrazolo [1,5-a]pyrimidine-2-carboxamide]
< 0.1	< 200	COc1ccc(-c2ccnc3cc(C(=O)Nc4ccc(C(=O)N5CCOCC5)cc4F)nn23)cc1OC [Compound 157, 7-(3,4-dimethoxyphenyl)-N-(2-fluoro-4-(morpholine-4-carbonyl)phenyl)pyrazolo[1,5-a]pyrimidine-2-carboxamide]
< 0.1	200 to 2000	CCOc1ccc(NC(=O)Nc2cc3nccc(-c4ccc(OC)c(OC)c4)n3n2)cc1 [Compound 109, 1-(7-(3,4-dimethoxyphenyl)pyrazolo[1,5-a]pyrimidin-2-yl)-3-(4-ethoxyphenyl)urea]
< 0.1	< 200	COc1ccc(-c2ccnc3cc(C(=O)Nc4ccc(C(=O)OCc5ccccc5)cn4)nn23)cc1OC [Compound 114, benzyl 6-(7-(3,4-dimethoxyphenyl)pyrazolo [1,5-a]pyrimidine-2-carboxamido)nicotinate]
< 0.1	< 200	COc1ccc(-c2ccnc3cc(C(=O)Nc4ccc(C(=O)NCCN5CCOCC5)cc4)nn23)cc1OC [Compound 139, 7-(3,4-dimethoxyphenyl)-N-(4-((2-morpholinoethyl)carbamoyl)phenyl)pyrazolo[1,5-a]pyrimidine-2-carboxamide]
0.1 to 10 (≈ 0.217 to 21.7 µM)	< 200	COc1ccc(-c2ccnc3cc(C(=O)Nc4ccc(NC(=O)[C@H](C)N)cc4)nn23)cc1OC [Compound 284, (S)-N-(4-(2-amino-propanamido)phenyl)-7-(3,4-dimethoxyphenyl)pyrazolo [1,5-a]pyrimidine-2-carboxamide]
0.1 to 10 (≈ 0.229 to 22.9 µM)	< 200	COc1ccc(-c2ccnc3cc(C(=O)Nc4ccc(C(=O)O)cc4F)nn23)cc1OC [Compound 156, 4-(7-(3,4-dimethoxyphenyl)pyrazolo[1,5-a]pyrimidine-2-carboxamido)-3-fluorobenzoic acid]
< 0.1	< 200	COc1ccc(-c2ccnc3cc(C(=O)NC45CC(C(=O)N6CCN(C(=O)OC(C)(C)C)CC6)(C4)C5)nn23)cc1OC [Compound 92, tert-butyl 4-(3-(7-(3,4-dimethoxyphenyl)pyrazolo [1,5-a]pyrimidine-2-carboxamido)bicyclo [1.1.1]pentane-1-carbonyl)piperazine-1-carboxylate]
> 10	200 to 2000	COc1ccc(-c2ccnc3cc(C(=O)Nc4ccc(C(=O)N[C@@H](CC(C)C)C(=O)O)cc4)nn23)cc1OC [Compound 85, (4-(7-(3,4-dimethoxyphenyl)pyrazolo[1,5-a]pyrimidine-2-carboxamido)benzoyl)-L-leucine]
> 10	200 to 2000	COc1ccc(-c2ccnc3cc(C(=O)Nc4ccc(C(=O)NCCN5CCN(C)CC5)cc4)nn23)cc1OC [Compound 178, 7-(3,4-dimethoxyphenyl)-N-(4-((2-(4-methylpiperazin-1-yl)ethyl)carbamoyl)phenyl)pyrazolo[1,5-a]pyrimidine-2-carboxamide]
< 0.1	< 200	COC(=O)c1ccc(NC(=O)c2cc3nccc(-c4ccc(OC)c(OC)c4)n3n2)c(C)c1 [Compound 125, methyl 4-(7-(3,4-dimethoxyphenyl)pyrazolo [1,5-a]pyrimidine-2-carboxamido)-3-methylbenzoate]
< 0.1	< 200	COc1ccc(-c2ccnc3cc(C(=O)Nc4ccc(C(=O)OCCCN5CCOCC5)cc4)nn23)cc1OC [Compound 121, 3-morpholinopropyl 4-(7-(3,4-dimethoxyphenyl)pyrazolo [1,5-a]pyrimidine-2-carboxamido)benzoate]
0.1 to 10 (≈ 0.194 to 19.4 µM)	< 200	COc1ccc(-c2ccnc3cc(C(=O)Nc4ccc(C(=O)N5CCN(C)CC5)c(O)c4)nn23)cc1OC [Compound 170, 7-(3,4-dimethoxyphenyl)-N-(3-hydroxy-4-(4-methylpiperazine-1-carbonyl)phenyl)pyrazolo [1,5-a]pyrimidine-2-carboxamide]
< 0.1	200 to 2000	COc1ccc(-c2ccnc3cc(C(=O)Nc4ccc(NC(=O)CN)cc4)nn23)cc1OC [Compound 283, N-(4-(2-aminoacetamido)phenyl)-7-(3,4-dimethoxyphenyl)pyrazolo [1,5-a]pyrimidine-2-carboxamide]

Further lines, the molecule ahead of its results:

Compound	solubility at 90 min [1] [µg/mL]	EC50 (human wild type-CFTR) [nM]
COc1ccc(-c2ccnc3cc(C(=O)Nc4cccnc4)nn23)cc1OC [Compound 18, 7-(3,4-dimethoxyphenyl)-N-(pyridin-3-yl) pyrazolo[1,5-a]pyrimidine-2-carboxamide]	< 0.1	200 to 2000
COc1ccc(-c2ccnc3cc(C(=O)Nc4ccccc4)nn23)cc1OC [Compound 1, 7-(3,4-dimethoxyphenyl)-N-phenylpyrazolo[1,5-a] pyrimidine-2-carboxamide]	< 0.1	< 200
COC(=O)[C@H](C)NC(=O)c1ccc(NC(=O)c2cc3nccc(-c4ccc(OC)c(OC)c4)n3n2)cc1 [Compound 42, methyl (4-(7-(3,4-dimethoxyphenyl)pyrazolo [1,5-a]pyrimidine-2-carboxamido)benzoyl)-L-alaninate]	< 0.1	< 200
COc1ccc(-c2ccnc3cc(C(=O)N[C@H]4CC[C@H](C(=O)N5CCN(C(=O)OC(C)(C)C)CC5)CC4)nn23)cc1OC [Compound 76, tert-butyl 4-((1R,4R)-4-(7-(3,4-dimethoxyphenyl)pyrazolo [1,5-a]pyrimidine-2-carboxamido)cyclohexane-1-carbonyl)piperazine-1-carboxylate]	0.1 to 10 (≈ 0.169 to 16.9 µM)	200 to 2000
COC(=O)C1CN(C(=O)c2ccc(NC(=O)c3cc4nccc(-c5ccc(OC)c(OC)c5)n4n3)cc2)C1 [Compound 65, methyl 1-(4-(7-(3,4-dimethoxyphenyl)pyrazolo[1,5-a]pyrimidine-2-carboxamido)benzoyl) azetidine-3-carboxylate]	< 0.1	< 200
COC(=O)[C@@H](NC(=O)c1ccc(NC(=O)c2cc3nccc(-c4ccc(OC)c(OC)c4)n3n2)cc1)C(C)C [Compound 58, methyl (4-(7-(3,4-dimethoxyphenyl)pyrazolo [1,5-a]pyrimidine-2-carboxamido)benzoyl)-L-valinate]	< 0.1	< 200
CCOC(=O)COc1ccc(NC(=O)c2cc3nccc(-c4ccc(OC)c(OC)c4)n3n2)cc1 [Compound 34, ethyl 2-(4-(7-(3,4-dimethoxyphenyl)pyrazolo [1,5-a]pyrimidine-2-carboxamido)phenoxy) acetate]	< 0.1	< 200
COc1ccc(-c2ccnc3cc(C(=O)Nc4cccc(C(=O)N5CCOCC5)c4)nn23)cc1OC [Compound 55, 7-(3,4-dimethoxyphenyl)-N-(3-(morpholine-4-carbonyl)phenyl)pyrazolo [1,5-a]pyrimidine-2-carboxamide]	< 0.1	< 200
COc1ccc(-c2ccnc3cc(C(=O)Nc4ccc(C(N)=O)cc4)nn23)cc1OC [Compound 48, N-(4-carbamoylphenyl)-7-(3,4-dimethoxyphenyl)pyrazolo [1,5-a]pyrimidine-2-carboxamide]	< 0.1	< 200
COc1ccc(-c2ccnc3cc(C(=O)Nc4cccc(C(=O)N5CCN(C(=O)OC(C)(C)C)CC5)c4)nn23)cc1OC [Compound 56, tert-butyl 4-(3-(7-(3,4-dimethoxyphenyl)pyrazolo [1,5-a]pyrimidine-2-carboxamido)benzoyl) piperazine-1-carboxylate]	< 0.1	< 200
COC(=O)[C@H](Cc1ccccc1)NC(=O)c1ccc(NC(=O)c2cc3nccc(-c4ccc(OC)c(OC)c4)n3n2)cc1 [Compound 46, methyl (4-(7-(3,4-dimethoxyphenyl)pyrazolo [1,5-a]pyrimidine-2-carboxamido)benzoyl)-L-phenylalaninate]	< 0.1	< 200
COC(=O)[C@H](CC(C)C)NC(=O)c1ccc(NC(=O)c2cc3nccc(-c4ccc(OC)c(OC)c4)n3n2)cc1 [Compound 57, methyl (4-(7-(3,4-dimethoxyphenyl)pyrazolo [1,5-a]pyrimidine-2-carboxamido)benzoyl)-L-leucinate]	< 0.1	< 200
COc1ccc(-c2ccnc3cc(C(=O)Nc4cccc(C(=O)O)c4)nn23)cc1OC [Compound 16, 3-(7-(3,4-dimethoxyphenyl)pyrazolo[1,5-a]pyrimidine-2-carboxamido)benzoic acid]	> 10	≥ 2000
